Test results published in patent US6375979B2 (Somerset Pharmaceuticals, Inc., priority 1995, dated 2002).
“And” between values parts separate entries of the source, which are not always exact repeats. Equal entries are not always repeated. Where two headings read alike, the source gives them in different places.

Assays:
MAO-B [1] = target: T1, MAO-B (Cavia porcellus, UniProt P58028); assay: MAO-B inhibition in guinea pig hippocampal homogenates in vitro; assay type: biochemical; conditions: read-out: MAO-B % Inhibition x ± SEM
T1 construct: by human platelets and/or guinea pig hippocampal homogenates; from tissue; host or cells: guinea pig hippocampus homogenate
T1 sequence (P58028 1-520): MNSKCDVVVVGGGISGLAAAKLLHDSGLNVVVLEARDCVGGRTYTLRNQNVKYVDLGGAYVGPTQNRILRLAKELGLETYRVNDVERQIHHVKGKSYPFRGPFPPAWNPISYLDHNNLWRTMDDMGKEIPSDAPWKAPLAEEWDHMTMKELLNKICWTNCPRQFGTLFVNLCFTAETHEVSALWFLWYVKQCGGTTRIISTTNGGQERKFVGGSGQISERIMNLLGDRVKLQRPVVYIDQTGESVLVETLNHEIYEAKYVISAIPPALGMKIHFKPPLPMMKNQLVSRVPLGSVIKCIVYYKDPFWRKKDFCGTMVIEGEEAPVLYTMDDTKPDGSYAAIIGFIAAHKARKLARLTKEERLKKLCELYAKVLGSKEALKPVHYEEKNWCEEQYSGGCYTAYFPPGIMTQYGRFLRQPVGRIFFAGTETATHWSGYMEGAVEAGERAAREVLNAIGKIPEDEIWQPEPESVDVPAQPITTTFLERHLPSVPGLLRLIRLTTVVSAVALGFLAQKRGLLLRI
Excerpt: Human platelet MAO is comprised exclusively of the type-B isoform of the enzyme. […] The present study also examined the two enantiomers of DMS for inhibitory activity with respect to the MAO-A and MAO-B in guinea pig hippocampal tissue. Guinea pig brain tissue is an excellent animal model for studying brain dopamine metabolism, the enzyme kinetics of the multiple forms of MAO and the inhibitory properties of novel agents that interact with these enzymes. The multiple forms of MAO in this animal species show similar kinetic properties to those found in human brain tissue. Finally, the test agents were administered to guinea pigs and the extent to which they might act as inhibitors of brain MAO in vivo was assessed.
In vitro: The test system utilized the in vitro conversion of specific substrates of MAO-A (^14C-serotonin) and MAO-B (^14C-phenylethylamine) by human platelets and/or guinea pig hippocampal homogenates. […] A percent inhibition was calculated from these values.

MAO-B [2] = target: T1, MAO-B; assay: In vivo brain MAO-B inhibition in guinea pig hippocampus after 5 days of administration
Method: FIG. 20: In Vivo MAO-B Inhibition in Guinea Pig Hippocampus. […] Animals were then sacrificed and the MAO-B activity in the hippocampus portion of the brain was determined. […] The plots were used to estimate the ID50 dosage for each agent.
Each enantiomer of DMS was administered in vivo by subcutaneous injection once a day for five consecutive days, and inhibition of brain MAO-B activity was then determined.

[3] = test system: cultured rat mesencephalic cells exposed to NMDA; assay: NMDA model of cell death: [3H]-dopamine uptake; conditions: 100 μM NMDA exposure
MAO-A = target: T2, MAO-A (Cavia porcellus, UniProt H0UVA2); assay: In vivo MAO-A inhibition in guinea pig cortex (hippocampus) after 5 s.c. treatments; conditions: 10 mg/kg, highest dose tested
T2 sequence (H0UVA2 1-461): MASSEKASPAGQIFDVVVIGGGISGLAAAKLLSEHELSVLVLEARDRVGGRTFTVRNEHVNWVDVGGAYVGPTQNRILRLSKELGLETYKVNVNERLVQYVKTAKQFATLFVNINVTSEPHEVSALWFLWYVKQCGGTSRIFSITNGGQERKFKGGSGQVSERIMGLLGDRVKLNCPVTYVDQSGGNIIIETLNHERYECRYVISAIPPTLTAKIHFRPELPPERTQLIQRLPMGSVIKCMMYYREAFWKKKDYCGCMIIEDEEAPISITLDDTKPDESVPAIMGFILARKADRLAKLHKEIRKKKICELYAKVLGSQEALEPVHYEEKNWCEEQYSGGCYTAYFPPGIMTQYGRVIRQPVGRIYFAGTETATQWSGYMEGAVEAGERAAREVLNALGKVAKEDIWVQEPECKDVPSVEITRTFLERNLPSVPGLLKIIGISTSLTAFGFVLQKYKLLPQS

[4] = test system: cultured embryonic mesencephalic cells; assay: Neuronal survival: [3H]dopamine uptake by cultured mesencephalic cells; assay type: cell-based, rat
Excerpt: The amount of uptake by the cultured brain cells corresponds to axonal growth.

[5] = test system: cultured rat mesencephalic cells exposed to NMDA; assay: NMDA model of cell death: TH immunochemistry; conditions: 100 μM NMDA exposure
Method: Rat mesencephalic cell cultures were exposed to 100 μM NMDA and incubated as described above in connection with FIG. 16.

[6] = test system: cultured rat mesencephalic cells; assay: Medium change (glutamate receptor dependent) model of cell death: TH positive cells; conditions: medium change model
Method: In these experiments, cells were plated and allowed to stabilize for several days.

[7] = test system: TH positive cells in cultured E-14 embryonic mesencephalic cells

Compound: C#CCN[C@@H](C)Cc1ccccc1 (single isomer, unassigned) [S(+)DMS, ent-desmethylselegiline]
- inhibition at 1 µM (MAO-B [1]): 44.4 ± 6.4%
- times less potent than selegiline, preliminary studies (MAO-B [2]; brain MAO-B in vivo): about 10 times
- times less potent than selegiline as an inhibitor of MAO-B, more recent studies (MAO-B [2]; brain MAO-B in vivo, larger group of animals): about 50 times
- ED50 (MAO-B [2]; guinea pig, sc, read-out: ID50 for MAO-B in Guinea Pig Hippocampal Cortex, once a day for 5 days, subcutaneous, larger group of animals, FIG. 20): ~0.5 mg/kg
- Dopamine uptake, % control, Mean ([3]; 0.5 μM): 187.4%
- Dopamine uptake, % control, individual cultures ([3]; 0.5 μM): 164.2% and 179.0% and 181.6% and 242.7% and 169.2%
- Dopamine uptake, counts/min, Mean ([3]; 0.5 μM): 12658.2 counts/min
- Dopamine uptake, counts/min, individual cultures ([3]; 0.5 μM): 11096 counts/min and 12092 counts/min and 12269 counts/min and 16399 counts/min and 11435 counts/min
- Dopamine uptake, % control, Mean ([3]; 5.0 μM): 246.9%
- Dopamine uptake, % control, individual cultures ([3]; 5.0 μM): 229.9% and 300.6% and 245.4% and 235.8% and 222.8%
- Dopamine uptake, counts/min, Mean ([3]; 5.0 μM): 16681.6 counts/min
- Dopamine uptake, counts/min, individual cultures ([3]; 5.0 μM): 15535 counts/min and 20313 counts/min and 16579 counts/min and 15929 counts/min and 15052 counts/min
- Dopamine uptake, % control, Mean ([3]; 50 μM): 448.9%
- Dopamine uptake, % control, individual cultures ([3]; 50 μM): 371.5% and 384.0% and 422.5% and 577.9% and 488.8%
- Dopamine uptake, counts/min, Mean ([3]; 50 μM): 30331.2 counts/min
- Dopamine uptake, counts/min, individual cultures ([3]; 50 μM): 25101 counts/min and 25944 counts/min and 28545 counts/min and 39042 counts/min and 33024 counts/min
- inhibition of MAO-A activity in vivo (MAO-A): did not cause any observable inhibition

Compound: desmethylselegiline [R(−)DMS]
- 3H-Dopamine Uptake, % Cont ([4]; 0.5 μM): 200.4%
- 3H-Dopamine Uptake, Mean ([4]; 0.5 μM): 24020 ± 800
- 3H-Dopamine Uptake, % Cont ([4]; 5 μM): 291.5%
- 3H-Dopamine Uptake, Mean ([4]; 5 μM): 34936 ± 2119
- 3H-Dopamine Uptake, % Cont ([4]; 50 μM): 474.3%
- 3H-Dopamine Uptake, Mean ([4]; 50 μM): 56826 ± 2656
- TH Immunochemistry, % control, Mean ([5]; 0.5 μM): 97.3%
- TH Immunochemistry, % control, individual cultures ([5]; 0.5 μM): 100.9% and 79.6% and 111.5%
- TH Immunochemistry, cells/cm^2, Mean ([5]; 0.5 μM): 91.67 cells/cm^2
- TH Immunochemistry, cells/cm^2, individual cultures ([5]; 0.5 μM): 95.0 cells/cm^2 and 75.0 cells/cm^2 and 105.0 cells/cm^2
- TH Immunochemistry, % control, Mean ([5]; 5.0 μM): 136.1%
- TH Immunochemistry, % control, individual cultures ([5]; 5.0 μM): 151.3% and 130.1% and 138.1% and 124.8%
- TH Immunochemistry, cells/cm^2, Mean ([5]; 5.0 μM): 128.13 cells/cm^2
- TH Immunochemistry, cells/cm^2, individual cultures ([5]; 5.0 μM): 142.5 cells/cm^2 and 122.5 cells/cm^2 and 130.0 cells/cm^2 and 117.5 cells/cm^2
- TH Immunochemistry, % control, Mean ([5]; 50 μM): 165.9%
- TH Immunochemistry, % control, individual cultures ([5]; 50 μM): 252.2% and 180.5% and 108.8% and 122.1%
- TH Immunochemistry, cells/cm^2, Mean ([5]; 50 μM): 156.25 cells/cm^2
- TH Immunochemistry, cells/cm^2, individual cultures ([5]; 50 μM): 237.5 cells/cm^2 and 170.0 cells/cm^2 and 102.5 cells/cm^2 and 115.0 cells/cm^2
- Dopamine uptake, % control, Mean ([3]; 0.5 μM): 138.6%
- Dopamine uptake, % control, individual cultures ([3]; 0.5 μM): 167.3% and 138.9% and 132.9% and 133.6% and 120.4%
- Dopamine uptake, counts/min, Mean ([3]; 0.5 μM): 9365.2 counts/min
- Dopamine uptake, counts/min, individual cultures ([3]; 0.5 μM): 11304 counts/min and 9385 counts/min and 8976 counts/min and 9028 counts/min and 8133 counts/min
- Dopamine uptake, % control, Mean ([3]; 5.0 μM): 177.6%
- Dopamine uptake, % control, individual cultures ([3]; 5.0 μM): 163.0% and 199.9% and 169.8% and 204.0% and 151.4%
- Dopamine uptake, counts/min, Mean ([3]; 5.0 μM): 12001.8 counts/min
- Dopamine uptake, counts/min, individual cultures ([3]; 5.0 μM): 11014 counts/min and 13509 counts/min and 11471 counts/min and 13786 counts/min and 10229 counts/min
- Dopamine uptake, % control, Mean ([3]; 50 μM): 304.3%
- Dopamine uptake, % control, individual cultures ([3]; 50 μM): 262.1% and 341.8% and 318.7% and 259.3% and 339.9%
- Dopamine uptake, counts/min, Mean ([3]; 50 μM): 20562.2 counts/min
- Dopamine uptake, counts/min, individual cultures ([3]; 50 μM): 17708 counts/min and 23090 counts/min and 21530 counts/min and 17520 counts/min and 22963 counts/min
- TH Immunochemistry, % control, Mean ([6]; 0.5 μM): 123.9%
- TH Immunochemistry, % control, individual cultures ([6]; 0.5 μM): 129.0% and 117.6% and 125.2%
- TH Immunochemistry, cells/cm^2, Mean ([6]; 0.5 μM): 335.63 cells/cm^2
- TH Immunochemistry, cells/cm^2, individual cultures ([6]; 0.5 μM): 340.0 cells/cm^2 and 310.0 cells/cm^2 and 330.0 cells/cm^2 and 362.5 cells/cm^2
- TH Immunochemistry, % control, Mean ([6]; 5.0 μM): 132.1%
- TH Immunochemistry, % control, individual cultures ([6]; 5.0 μM): 122.3% and 129.9% and 137.5% and 138.5%
- TH Immunochemistry, cells/cm^2, Mean ([6]; 5.0 μM): 348.13 cells/cm^2
- TH Immunochemistry, cells/cm^2, individual cultures ([6]; 5.0 μM): 322.5 cells/cm^2 and 342.5 cells/cm^2 and 362.5 cells/cm^2 and 365.0 cells/cm^2
- TH Immunochemistry, % control, Mean ([6]; 50 μM): 144.9%
- TH Immunochemistry, % control, individual cultures ([6]; 50 μM): 117.6% and 167.9% and 144.1% and 149.8%
- TH Immunochemistry, cells/cm^2, Mean ([6]; 50 μM): 381.88 cells/cm^2
- TH Immunochemistry, cells/cm^2, individual cultures ([6]; 50 μM): 310.0 cells/cm^2 and 442.5 cells/cm^2 and 380.0 cells/cm^2 and 395.0 cells/cm^2
- Survival of TH positive cells, % cont. ([7]; 0.5 μM): 226.62%
- Survival of TH positive cells, Mean cells/cm^2 ([7]; 0.5 μM): 246.00 ± 22.76 cells/cm^2
- Survival of TH positive cells, % cont. ([7]; 5 μM): 329.76%
- Survival of TH positive cells, Mean cells/cm^2 ([7]; 5 μM): 357.95 ± 25.76 cells/cm^2
- Survival of TH positive cells, % cont. ([7]; 50 μM): 360.76%
- Survival of TH positive cells, Mean cells/cm^2 ([7]; 50 μM): 391.60 ± 34.93 cells/cm^2
